# Test results as given in patent US10947201B2, “Certain chemical entities, compositions, and methods” (NEUPHARMA, INC., priority 2015, dated 2021).
# Columns and labels:
# Assay type in all cases: biochemical
# Conditions in all cases: for inhibition at 0.1 µM: compound at 100 nM, [ATP] = Km
# EGFR (ErbB1) = target: T1, EGFR (ErbB1) (Homo sapiens, UniProt P00533); experiment: Z'-LYTE kinase inhibition assay (Invitrogen), EGFR
# T1 construct: purchased Invitrogen
# Procedure: (§1) Inhibitory activities of compounds against BTK, EGFR and EGFR mutants (EGFR L858R/T790M) were measured by Invitrogen using Z′-LYTE® Method as briefly described in the following.
# (§2) Test Compounds are screened in 1% DMSO (final) in the well. For 10 point titrations, 3-fold serial dilutions are conducted from the starting concentration. All ATP Solutions are diluted to a 4× working concentration in Kinase Buffer (50 mM HEPES pH 7.5, 0.01% BRIJ-35, 10 mM MgCl2, 1 mM EGTA). Peptide/Kinase Mixtures are diluted to a 2× working concentration in the appropriate Kinase Buffers as described below.
# (i) Peptide/Kinase Mixtures for measurement of EGFR (ErbB1):
# The 2×EGFR (ErbB1)/Tyr 04 mixture is prepared in 50 mM HEPES pH 7.5, 0.01% BRIJ-35, 10 mM MgCl2, 4 mM MnCl2, 1 mM EGTA, 2 mMDTT. The final 10 μL Kinase Reaction consists of 1.1-5.25 ng EGFR (ErbB1) and 2 μM Tyr 04 in 50 mM HEPES pH 7.5, 0.01% BRIJ-35, 10 mM MgCl2, 2 mM MnCl2, 1 mM EGTA, 1 mM DTT. After the 1 hour Kinase Reaction incubation, 5 μL of a 1:64 dilution of DevelopmentReagent B is added.
# (§3) Reaction starts by 30-second shaking of mixture consisting of 2.5 μL 4× test compound, 5 μL 2× kinase reaction mixture and 2.5 μL 4×ATP Solution on Bar-coded Corning, low volume NBS, black 384-well plate (Corning Cat. #3676). Then the mixture is incubated for 60-minute at room temperature for the kinase reaction, followed by addition of 5 μL of a 1:1024 dilution of development reagent A and 30-second plate shake. The mixture is then incubated for another 60-minute at room temperature for development reaction. Finally fluorescence is read by plate reader. […] The scale utilized in Tables 2 and 3 is as follows: ++ more than 50% inhibition and + less than 50% inhibition.
# (§4) To determine IC50 of a compound against EGFR or EGFR mutants, a series of concentrations of the compound were tested for the inhibition. IC50 was calculated by plotting the concentration of compound vs the percentage of inhibition in treated wells using GraphPad Prism 5. […] The scale utilized in Table 4 is as follows: ++ less than 100 nM and + greater than 100 nM.
# EGFR (ErbB1) T790M L858R = target: T2, EGFR (ErbB1) T790M L858R (Homo sapiens, UniProt P00533, L858R/T790M); experiment: Z'-LYTE kinase inhibition assay (Invitrogen), EGFR L858R/T790M
# T2 construct: purchased Invitrogen
# Procedure: as §1, §2
# (iv) Peptide/Kinase Mixtures for measurement of EGFR (ErbB1) T790M L858R:
# The 2×EGFR (ErbB1) T790M L858R/Tyr 04 mixture is prepared in 50 mM HEPES pH 6.5, 0.01% BRIJ-35, 10 mM MgCl2, 1 mM EGTA, 0.02% NaN3. The final 10 μL Kinase Reaction consists of 0.38-4.22 ng EGFR (ErbB1) T790M L858R and 2 μM Tyr 04 in 50 mM HEPES pH 7.0, 0.01% BRIJ-35, 10 mM MgCl2, 1 mM EGTA, 0.01% NaN3. After the 1 hour Kinase Reaction incubation, 5 μL of a 1:64 dilution of Development Reagent B is added.
# as §3, §4
# BTK = target: T3, BTK (Homo sapiens, UniProt Q06187); experiment: Z'-LYTE kinase inhibition assay (Invitrogen), BTK
# T3 construct: purchased Invitrogen
# Procedure: as §1, §2
# (v) Peptide/Kinase Mixtures for measurement of BTK:
# The 2×BTK/Tyr 01 mixture is prepared in 50 mM HEPES pH 7.5, 0.01% BRIJ-35, 10 mM MgCl2, 1 mM EGTA. The final 10 μL Kinase Reaction consists of 1.04-10.4 ng BTK and 2 μM Tyr 01 in 50 mM HEPES pH 7.5, 0.01% BRIJ-35, 10 mM MgCl2, 1 mM EGTA. After the 1 hour Kinase Reaction incubation, 5 μL of a 1:256 dilution of Development Reagent B is added.
# as §3, §4
# T3 sequence (Q06187 whole entry): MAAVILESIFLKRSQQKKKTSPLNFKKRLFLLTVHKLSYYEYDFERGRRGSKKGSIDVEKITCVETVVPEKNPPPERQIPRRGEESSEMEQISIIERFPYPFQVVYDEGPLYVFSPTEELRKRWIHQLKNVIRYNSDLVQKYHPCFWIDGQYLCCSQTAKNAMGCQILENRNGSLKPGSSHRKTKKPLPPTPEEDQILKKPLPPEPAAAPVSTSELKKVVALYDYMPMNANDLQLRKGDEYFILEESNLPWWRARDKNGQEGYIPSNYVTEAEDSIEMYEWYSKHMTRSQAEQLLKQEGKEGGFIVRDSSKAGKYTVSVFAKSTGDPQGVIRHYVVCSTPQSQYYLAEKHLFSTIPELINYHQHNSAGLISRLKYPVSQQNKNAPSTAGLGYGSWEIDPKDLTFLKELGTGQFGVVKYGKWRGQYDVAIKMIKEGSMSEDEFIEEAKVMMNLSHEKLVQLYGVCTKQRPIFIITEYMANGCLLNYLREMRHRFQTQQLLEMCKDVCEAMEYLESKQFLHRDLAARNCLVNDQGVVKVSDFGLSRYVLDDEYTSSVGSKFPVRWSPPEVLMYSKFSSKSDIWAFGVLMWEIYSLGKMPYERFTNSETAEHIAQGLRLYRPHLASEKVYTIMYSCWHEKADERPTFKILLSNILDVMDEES
# T2 sequence (P00533 25-1210 T790M/L858R): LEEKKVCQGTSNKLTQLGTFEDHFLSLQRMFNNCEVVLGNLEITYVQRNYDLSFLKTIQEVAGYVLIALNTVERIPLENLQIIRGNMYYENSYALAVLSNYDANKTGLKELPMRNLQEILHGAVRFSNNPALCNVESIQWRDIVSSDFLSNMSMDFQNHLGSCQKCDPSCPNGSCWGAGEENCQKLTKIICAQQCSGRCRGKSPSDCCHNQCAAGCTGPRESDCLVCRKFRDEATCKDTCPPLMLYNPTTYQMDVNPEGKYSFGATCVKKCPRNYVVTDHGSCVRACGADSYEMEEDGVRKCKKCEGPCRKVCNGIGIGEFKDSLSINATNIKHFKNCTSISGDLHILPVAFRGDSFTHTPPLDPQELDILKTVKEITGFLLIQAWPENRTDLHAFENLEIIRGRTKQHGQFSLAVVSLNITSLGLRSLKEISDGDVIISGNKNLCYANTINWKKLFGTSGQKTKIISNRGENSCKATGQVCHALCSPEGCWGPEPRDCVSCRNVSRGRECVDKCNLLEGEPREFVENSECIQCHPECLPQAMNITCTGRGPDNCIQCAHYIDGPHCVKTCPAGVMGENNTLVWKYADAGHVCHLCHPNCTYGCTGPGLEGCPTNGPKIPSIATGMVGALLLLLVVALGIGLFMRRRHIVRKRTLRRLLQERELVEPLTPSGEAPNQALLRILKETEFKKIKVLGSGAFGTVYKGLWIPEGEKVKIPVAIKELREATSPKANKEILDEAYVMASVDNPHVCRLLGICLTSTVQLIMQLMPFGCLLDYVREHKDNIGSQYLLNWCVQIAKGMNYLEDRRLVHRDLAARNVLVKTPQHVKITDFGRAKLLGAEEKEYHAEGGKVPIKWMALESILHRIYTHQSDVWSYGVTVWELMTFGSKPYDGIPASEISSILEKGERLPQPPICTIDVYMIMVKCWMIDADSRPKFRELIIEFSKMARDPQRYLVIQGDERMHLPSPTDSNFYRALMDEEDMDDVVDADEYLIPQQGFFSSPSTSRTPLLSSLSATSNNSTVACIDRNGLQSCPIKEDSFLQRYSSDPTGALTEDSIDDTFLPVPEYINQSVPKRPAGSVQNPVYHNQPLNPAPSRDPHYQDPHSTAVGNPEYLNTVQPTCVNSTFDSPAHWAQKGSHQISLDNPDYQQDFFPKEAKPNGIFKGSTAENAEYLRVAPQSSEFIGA
# T1 sequence (P00533 25-1210): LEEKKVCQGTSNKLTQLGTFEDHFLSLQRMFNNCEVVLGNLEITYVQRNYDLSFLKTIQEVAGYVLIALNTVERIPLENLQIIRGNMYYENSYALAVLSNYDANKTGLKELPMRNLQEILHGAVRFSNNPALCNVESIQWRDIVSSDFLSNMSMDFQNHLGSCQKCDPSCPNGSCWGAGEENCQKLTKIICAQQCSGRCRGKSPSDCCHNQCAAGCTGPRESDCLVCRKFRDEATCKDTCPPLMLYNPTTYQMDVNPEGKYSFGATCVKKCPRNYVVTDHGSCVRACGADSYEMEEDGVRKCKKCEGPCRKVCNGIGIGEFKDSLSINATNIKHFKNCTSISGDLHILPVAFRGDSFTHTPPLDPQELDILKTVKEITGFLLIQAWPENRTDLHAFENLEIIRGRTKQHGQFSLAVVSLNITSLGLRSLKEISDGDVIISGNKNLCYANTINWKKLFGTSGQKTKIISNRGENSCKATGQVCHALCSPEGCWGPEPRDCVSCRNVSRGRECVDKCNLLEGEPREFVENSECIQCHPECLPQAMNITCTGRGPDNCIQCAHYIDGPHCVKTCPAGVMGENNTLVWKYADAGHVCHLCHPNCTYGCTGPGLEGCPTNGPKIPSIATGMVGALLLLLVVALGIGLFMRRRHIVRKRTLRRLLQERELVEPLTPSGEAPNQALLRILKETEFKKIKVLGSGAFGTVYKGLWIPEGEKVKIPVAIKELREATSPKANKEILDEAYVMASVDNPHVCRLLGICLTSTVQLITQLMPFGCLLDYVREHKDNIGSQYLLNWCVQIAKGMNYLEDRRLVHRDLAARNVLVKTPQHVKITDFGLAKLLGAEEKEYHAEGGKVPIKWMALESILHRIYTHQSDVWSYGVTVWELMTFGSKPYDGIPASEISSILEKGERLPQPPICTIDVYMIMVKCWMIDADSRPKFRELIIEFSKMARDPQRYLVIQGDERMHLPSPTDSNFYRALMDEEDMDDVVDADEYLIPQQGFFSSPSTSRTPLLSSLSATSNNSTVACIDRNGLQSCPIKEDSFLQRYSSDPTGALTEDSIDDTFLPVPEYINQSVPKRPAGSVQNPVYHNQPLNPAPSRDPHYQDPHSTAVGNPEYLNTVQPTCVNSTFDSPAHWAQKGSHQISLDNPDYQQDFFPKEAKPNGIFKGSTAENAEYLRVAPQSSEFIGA
SMILES,inhibition at 0.1 µM (EGFR (ErbB1)),inhibition at 0.1 µM (EGFR (ErbB1) T790M L858R),inhibition at 0.1 µM (BTK),IC50 (EGFR (ErbB1)),IC50 (EGFR (ErbB1) T790M L858R),IC50 (BTK)
"C=CC(=O)N1CCCC(n2cnc3cnc(Nc4ccc(N5CCN(C)CC5)c(F)c4F)nc32)C1 (centres unmarked) [Example A023, 1-(3-(2-((2,3-difluoro-4-(4-methylpiperazin-1-yl)phenyl)amino)-9H-purin-9-yl)piperidin-1-yl)prop-2-en-1-one]",< 50%,< 50%,< 50%,,,
"C=CC(=O)Nc1cccc(-n2cnc3cnc(Nc4ccc(N5CCN(C)CC5)c(F)c4)nc32)c1 [Example A010, N-(3-(2-((3-fluoro-4-(4-methylpiperazin-1-yl)phenyl)amino)-9H-purin-9-yl)phenyl)acrylamide]",,,> 50%,> 100 nM,> 100 nM,< 100 nM
"C=CC(=O)Nc1cccc(-n2cnc3cnc(Nc4ccc(N5CCN(C)CC5)cc4)nc32)c1 [Example A002, N-(3-(2-((4-(4-methylpiperazin-1-yl)phenyl)amino)-9H-purin-9-yl)phenyl)acrylamide]",,,> 50%,> 100 nM,> 100 nM,< 100 nM
"C=CC(=O)Nc1cccc(-n2cnc3cnc(Nc4ccc(N5CCN(CCO)CC5)cc4)nc32)c1 [Example A015, N-(3-(2-((4-(4-(2-hydroxyethyl)piperazin-1-yl)phenyl)amino)-9H-purin-9-yl)phenyl)acrylamide]",< 50%,< 50%,> 50%,,,
"C=CC(=O)Nc1cccc(-n2cnc3cnc(Nc4ccc(N5CCN(C)CC5)cc4F)nc32)c1 [Example A021, N-(3-(2-((2-fluoro-4-(4-methylpiperazin-1-yl)phenyl)amino)-9H-purin-9-yl)phenyl)acrylamide]",< 50%,< 50%,< 50%,,,
"C=CC(=O)N1CCC(n2cnc3cnc(Nc4ccc(N5CCN(C)CC5)c(F)c4F)nc32)C1 (centres unmarked) [Example A011, 1-(3-(2-((2,3-difluoro-4-(4-methylpiperazin-1-yl)phenyl)amino)-9H-purin-9-yl)pyrrolidin-1-yl)prop-2-en-1-one]",< 50%,< 50%,< 50%,,,
"C=CC(=O)Nc1cccc(-n2cnc3cnc(Nc4ccc(N5CCN(CCO)CC5)c(F)c4F)nc32)c1 [Example A014, N-(3-(2-((2,3-difluoro-4-(4-(2-hydroxyethyl)piperazin-1-yl)phenyl)amino)-9H-purin-9-yl)phenyl)acrylamide]",< 50%,< 50%,< 50%,,,
"C=CC(=O)Nc1cccc(-n2cnc3cnc(Nc4ccc(N5CCN(CCO)CC5)cc4F)nc32)c1 [Example A003, N-(3-(2-((2-fluoro-4-(4-(2-hydroxyethyl)piperazin-1-yl)phenyl)amino)-9H-purin-9-yl)phenyl)acrylamide]",,,< 50%,,,
"C=CC(=O)Nc1cccc(-n2cnc3cnc(Nc4ccc(N5CCN(C)CC5)c(F)c4F)nc32)c1 [Example A019, N-(3-(2-((2,3-difluoro-4-(4-methylpiperazin-1-yl)phenyl)amino)-9H-purin-9-yl)phenyl)acrylamide]",< 50%,< 50%,< 50%,,,
"C=CC(=O)N1CCC(n2cnc3cnc(Nc4ccc(N5CCN(C)CC5)cc4)nc32)C1 (centres unmarked) [Example A005, 1-(3-(2-((4-(4-methylpiperazin-1-yl)phenyl)amino)-9H-purin-9-yl)pyrrolidin-1-yl)prop-2-en-1-one]",,,> 50%,,,
C=CC(=O)Nc1cccc(-n2cnc3cnc(Nc4ccc(N5CCN(CCO)CC5)c(F)c4)nc32)c1 [Example A020],< 50%,> 50%,> 50%,,,

# Now from value to compound:
inhibition at 0.1 µM (EGFR (ErbB1)),inhibition at 0.1 µM (EGFR (ErbB1) T790M L858R),inhibition at 0.1 µM (BTK),IC50 (EGFR (ErbB1)),IC50 (EGFR (ErbB1) T790M L858R),IC50 (BTK),SMILES
< 50%,< 50%,< 50%,,,,"C=CC(=O)N1CCCC(n2cnc3cnc(Nc4ccc(N5CCN(C)CC5)cc4F)nc32)C1 (centres unmarked) [Example A018, 1-(3-(2-((2-fluoro-4-(4-methylpiperazin-1-yl)phenyl)amino)-9H-purin-9-yl)piperidin-1-yl)prop-2-en-1-one]"
,,> 50%,,,,"C=CC(=O)N1CCC(n2cnc3cnc(Nc4ccc(N5CCN(C)CC5)c(F)c4)nc32)C1 (centres unmarked) [Example A004, 1-(3-(2-((3-Fluoro-4-(4-methylpiperazin-1-yl)phenyl)amino)-9H-purin-9-yl)pyrrolidin-1-yl)prop-2-en-1-one]"
,,> 50%,,,,"C=CC(=O)N1CCC(n2cnc3cnc(Nc4ccc(N5CCN(CCO)CC5)cc4)nc32)C1 (centres unmarked) [Example A006, 1-(3-(2-((4-(4-(2-hydroxyethyl)piperazin-1-yl)phenyl)amino)-9H-purin-9-yl)pyrrolidin-1-yl)prop-2-en-1-one]"
< 50%,< 50%,< 50%,,,,"C=CC(=O)N1CCC(n2cnc3cnc(Nc4ccc(N5CCN(C)CC5)cc4F)nc32)C1 (centres unmarked) [Example A017, 1-(3-(2-((2-fluoro-4-(4-methylpiperazin-1-yl)phenyl)amino)-9H-purin-9-yl)pyrrolidin-1-yl)prop-2-en-1-one]"
< 50%,< 50%,> 50%,,,,"C=CC(=O)N1CCCC(n2cnc3cnc(Nc4ccc(N5CCN(CCO)CC5)cc4)nc32)C1 (centres unmarked) [Example A013, 1-(3-(2-((4-(4-(2-hydroxyethyl)piperazin-1-yl)phenyl)amino)-9H-purin-9-yl)piperidin-1-yl)prop-2-en-1-one]"
< 50%,< 50%,< 50%,,,,"C=CC(=O)N1CCCC(n2cnc3cnc(Nc4ccc(N5CCN(CCO)CC5)c(F)c4F)nc32)C1 (centres unmarked) [Example A024, 1-(3-(2-((2,3-difluoro-4-(4-(2-hydroxyethyl)piperazin-1-yl)phenyl)amino)-9H-purin-9-yl)piperidin-1-yl)prop-2-en-1-one]"
< 50%,< 50%,< 50%,,,,C=CC(=O)N1CCC(n2cnc3cnc(Nc4ccc(N5CCN(CCO)CC5)c(F)c4F)nc32)C1 (centres unmarked) [Example A022]
,,< 50%,,,,"C=CC(=O)N1CCC(n2cnc3cnc(Nc4ccc(N5CCN(CCO)CC5)cc4F)nc32)C1 (centres unmarked) [Example A008, 1-(3-(2-((2-fluoro-4-(4-(2-hydroxyethyl)piperazin-1-yl)phenyl)amino)-9H-purin-9-yl)pyrrolidin-1-yl)prop-2-en-1-one]"
,,> 50%,,,,"C=CC(=O)N1CCC(n2cnc3cnc(Nc4ccc(N5CCN(CCO)CC5)c(F)c4)nc32)C1 (centres unmarked) [Example A007, 1-(3-(2-((3-fluoro-4-(4-(2-hydroxyethyl)piperazin-1-yl)phenyl)amino)-9H-purin-9-yl)pyrrolidin-1-yl)prop-2-en-1-one]"
< 50%,< 50%,> 50%,,,,C=CC(=O)N1CCCC(n2cnc3cnc(Nc4ccc(N5CCN(CCO)CC5)c(F)c4)nc32)C1 (centres unmarked) [Example A012]
< 50%,< 50%,< 50%,,,,"C=CC(=O)N1CCCC(n2cnc3cnc(Nc4ccc(N5CCN(CCO)CC5)cc4F)nc32)C1 (centres unmarked) [Example A016, 1-(3-(2-((2-fluoro-4-(4-(2-hydroxyethyl)piperazin-1-yl)phenyl)amino)-9H-purin-9-yl)piperidin-1-yl)prop-2-en-1-one]"
